These results are taken from patent US5256698A, “Treatment of psychosis using cyclohexyl-phenyl-lower alkyl amine derivatives” (University of Iowa Research Foundation, priority 1990, dated 1993).

For test [1], the system named is sigma. Nature of the test: sigma binding capability, [^3 H]-DTG. Conditions: for Percent Binding: [^3 H]-DTG. The method, then: The compound prepared in Example 1 was tested for sigma binding site inhibition in comparison with Haldol, a knows selective receptor for sigma binding sites. […] In the tests, the compound of Example 1 was then added to the cell system to see how successfully it displaced the radioactive ligands at the sigma binding site. The higher the percentage of radio ligand displaced, the greater the percentage of specific binding at the sigma sites.
The following table illustrates testing of sigma binding capability of bromhexine. Again, the test protocol and procedure were as previously described.

Test [2] has as its system Dopamine 1. The test is described as follows: Dopamine 1 binding, [^3 H]-SCH 23390. Conditions: for Percent Binding: Table 6 (head from Table 5); for Percent Inhibition: Average, N = 2. The source says:
(§1) Any number for a psychoactive drug over 50% is considered highly significant. By way of example, the following Table 2 illustrates a percentage of specific binding for certain known psychoactives capable of binding at other binding sites which are responsible for the undesirable side effects often associated with psychoactive agents.

The test system of test [3] is Dopamine 2. Nature of the test: Dopamine 2 binding, [^3 H]-Sulpiride. Conditions: for Percent Binding: Table 6 (head from Table 5); for Percent Inhibition: Average, N = 2.
Text: as §1

The test system of test [4] is PCP. The test is described as follows: PCP site binding, [^3 H]-TCP. To be noted: for Percent Binding: Table 6 (head from Table 5); for Percent Binding / Percent Inhibition: [^3 H]-TCP; for Percent Inhibition: Average, N = 2.
Text: as §1
[^3 HTCP is a PCP derivative which selectively labels PCP site; PCP i

Test [5] deals with dopaminergic receptors. Nature of the test: binding at dopaminergic receptors (summary of dopamine 1 and 2 binding).
Text: as §1

Test [6] has as its system sigma binding sites. Nature of the test: sigma binding site inhibition: displacement of radiolabelled haldol. To be noted: for binding to the sigma binding site (in words): hydrochloride. The method, then:
The compound prepared in Example 1 was tested for sigma binding site inhibition in comparison with Haldol, a knows selective receptor for sigma binding sites. In particular, a radioligand of haldol was bound to sigma binding sites to provide radio labeled ligands at sigma binding receptor sites of tissue. In the tests, the compound of Example 1 was then added to the cell system to see how successfully it displaced the radioactive ligands at the sigma binding site. The higher the percentage of radio ligand displaced, the greater the percentage of specific binding at the sigma sites.
The compound of Example 2 was tested in a similar fashion to that previously described in order to test comparison with Haldol or sigma binding site activity.

Test [7] has as its system sigma binding sites. Conditions: background; cited from earlier work.

“Also recorded” adds a separate entry of the source.

On to `CN(Cc1cc(Br)cc(Br)c1N)C1CCCCC1` [bromhexine, reference compound], for which the “Percent Binding” value is 90.8% in test [1] (10^-5 M, 10 µM); 45.1% in test [1] (10^-7 M, 0.1 µM); 24.8% in test [1] (10^-9 M, 0.001 µM); 17.5% in test [2] (10^-5 M, 10 µM); 10.8% in test [2] (10^-7 M, 0.1 µM); 3.9% in test [2] (10^-9 M, 0.001 µM). Also, the “Percent Binding” value in test [3] (10^-5 M, 10 µM) is reported as 11.9%; in test [3] (10^-7 M, 0.1 µM) it was 4.5%; in test [3] (10^-9 M, 0.001 µM) it was 5.6%; in test [4] (10^-5 M, 10 µM), -2.5%; in test [4] (10^-7 M, 0.1 µM), 0.2%; in test [4] (10^-9 M, 0.001 µM), -13.6%. The “sigma binding capability (in words)” value in test [1] (bromhexine) is “bind to the sigma site; also recorded: high degree of active sigma binding capability”. In addition, the “binding to PCP sites (in words)” value in test [4] is on record as “negligible”. Also, the “binding to dopaminergic sites (in words)” value in test [5] is on record as “negligible”.
As for `CCN(CCc1ccccc1)C1CCCCC1.Cl` [Example 2, N-cyclohexyl-N-ethyl 2-phenylethylamine hydrochloride], the “% Displaced Haldol” value in test [6] (Table 3, 10^-5 M, 10 µM) turned out to be 107.6%; in test [6] (Table 3, 10^-7 M, 0.1 µM), 84.7%; in test [6] (Table 3, 10^-9 M, 0.001 µM), 43.2%. Also, the “% Sigma Site Binding” value in test [6] (Table 3, 10^-5 M, 10 µM) is given as -7.6%; in test [6] (Table 3, 10^-7 M, 0.1 µM) it was 15.3%; in test [6] (Table 3, 10^-9 M, 0.001 µM) it was 56.8%. For the same compound, the “VERIFICATION % Displaced Haldol” value was 91.7% in test [6] (Table 3, 10^-5 M, 10 µM); 69.0% in test [6] (Table 3, 10^-7 M, 0.1 µM); 33.9% in test [6] (Table 3, 10^-9 M, 0.001 µM). In addition, the “VERIFICATION % Sigma Site Binding” value in test [6] (Table 3, 10^-5 M, 10 µM) amounted to 8.3%; in test [6] (Table 3, 10^-7 M, 0.1 µM) it was 31.0%; in test [6] (Table 3, 10^-9 M, 0.001 µM) it was 66.1%. Besides, the “binding to the sigma binding site (in words)” value was “binds selectively to the sigma and PCP binding sites” in test [6]; “high degree of active sigma binding capability” in test [6] (listed as N-cyclohexyl-N-ethyl 2-phenylethylamine). Further, the “Percent Inhibition” value in test [3] (10^-5 M) is reported as 47.2%; in test [3] (10^-7 M), 7.8%; in test [3] (10^-9 M), 5.9%; in test [4] (10^-5 M), 87.7%; in test [4] (10^-7 M), 21.0%; in test [4] (10^-9 M), 11.1%. Further, the “binding to PCP sites (in words)” value in test [4] was “binds selectively to the sigma and PCP binding sites”. In test [5], the “binding to dopaminergic sites (in words)” value is given as “only very weakly binds to the dopaminergic site”.
With `c1ccc(C2(N3CCCCC3)CCCCC2)cc1` [PCP, phencyclidine], the “affinity for sigma binding sites (in words)” value in test [7] is “also bind at this site”.
As for `O=C(CCCN1CCC(O)(c2ccc(Cl)cc2)CC1)c1ccc(F)cc1` [haloperidol], the “affinity for sigma binding sites (in words)” value in test [7] was “high affinity”.
Regarding `CCN(Cc1ccccc1)C1CCCCC1.Cl` [Example 1, N-cyclohexyl-N-ethylbenzylamine hydrochloride], the “% Displaced Haldol” value was 96.0% in test [6] (Table 1, 10^-5 M, 10 µM); 99.1% in test [6] (Table 1, 10^-7 M, 0.1 µM); 27.5% in test [6] (Table 1, 10^-9 M, 0.001 µM). Moreover, the “% Sigma Site Binding” value was 4.0% in test [6] (Table 1, 10^-5 M, 10 µM); 0.9% in test [6] (Table 1, 10^-7 M, 0.1 µM); 72.5% in test [6] (Table 1, 10^-9 M, 0.001 µM). Moreover, the “VERIFICATION % Displaced Haldol” value in test [6] (Table 1, 10^-5 M, 10 µM) is reported as 86.7%; in test [6] (Table 1, 10^-7 M, 0.1 µM), 61.1%; in test [6] (Table 1, 10^-9 M, 0.001 µM) it was 22.5%. For the same compound, the “VERIFICATION % Sigma Site Binding” value was found to be 13.3% in test [6] (Table 1, 10^-5 M, 10 µM); 38.9% in test [6] (Table 1, 10^-7 M, 0.1 µM); 77.5% in test [6] (Table 1, 10^-9 M, 0.001 µM). Further, the “binding to the sigma binding site (in words)” value in test [6] is reported as “selectively binds to the sigma binding site”; in test [6] (listed as N-cyclohexyl-N-ethyl 2-benzylamine), “high degree of active sigma binding capability”. In addition, the “Percent Inhibition” value in test [2] (10^-5 M) is on record as 10.7%; in test [2] (10^-7 M) it was 5.9%; in test [2] (10^-9 M) it was 3.2%; in test [3] (10^-5 M) it was 14.8%; in test [3] (10^-7 M), -1.5%; in test [3] (10^-9 M), -1.4%. In addition, the entries for the “Percent Inhibition” value in test [4] (10^-5 M), in test [4] (10^-7 M) and in test [4] (10^-9 M) were 25.1%, 7.1% and 9.4%, respectively. For the same compound, the “binding to dopaminergic sites (in words)” value in test [5] is on record as “excluded from binding at dopaminergic receptors”.
